Assay results as given in PubChem BioAssay AID1259407 (Chemical Carcinogenesis Research Information System (CCRIS), 2018).
Active and inactive are the calls of the source. The rule behind the calls is not given here.

Tested on: CCRIS mutagenicity, Ames/micronucleus/aberration tests
Assay: CCRIS mutagenicity studies

Nc1ccc(N)cc1
mutagenic call (Test System: AMES SALMONELLA TYPHIMURIUM, Strain/Indicator: TA2638, Metabolic Activation: NONE, Method: STANDARD PLATE): inactive; negative | mutagenic call (Test System: AMES SALMONELLA TYPHIMURIUM, Strain/Indicator: YG1024, Metabolic Activation: PLANT (PERSEA AMERICANA) S-117, Method: STANDARD PLATE): inactive; negative | mutagenic call (Test System: AMES SALMONELLA TYPHIMURIUM, Strain/Indicator: YG1024, Metabolic Activation: PLANT (ZEA MAYS) S-9, Method: STANDARD PLATE): inactive; negative | mutagenic call (Test System: AMES SALMONELLA TYPHIMURIUM, Strain/Indicator: YG1029, Metabolic Activation: PLANT (PERSEA AMERICANA) S-117, Method: STANDARD PLATE): inactive; negative | mutagenic call (Test System: AMES SALMONELLA TYPHIMURIUM, Strain/Indicator: YG1029, Metabolic Activation: PLANT (ZEA MAYS) S-9, Method: STANDARD PLATE): inactive; negative | mutagenic call (Test System: Ames Salmonella typhimurium, Strain/Indicator: TA98, Metabolic Activation: None, Method: Standard plate): inactive; negative | mutagenic call (Test System: Ames Salmonella typhimurium, Strain/Indicator: TA98, Metabolic Activation: Rat, Liver, S-9, Aroclor 1254 (10%), Method: Preincubation): active; positive | mutagenic call (Test System: Ames Salmonella typhimurium, Strain/Indicator: TA98, Metabolic Activation: Rat, Liver, S-9, Aroclor 1254 (10%), Method: Standard plate): active; positive | mutagenic call (Test System: Ames Salmonella typhimurium, Strain/Indicator: TA100, Metabolic Activation: None, Method: Preincubation): inactive; negative | mutagenic call (Test System: Ames Salmonella typhimurium, Strain/Indicator: TA100, Metabolic Activation: None, Method: Standard plate): inactive; negative | mutagenic call (Test System: Ames Salmonella typhimurium, Strain/Indicator: TA100, Metabolic Activation: Rat, Liver, S-9, Aroclor 1254 (10%), Method: Preincubation): inactive; negative | mutagenic call (Test System: Ames Salmonella typhimurium, Strain/Indicator: TA100, Metabolic Activation: Rat, Liver, S-9, Aroclor 1254 (10%), Method: Standard plate): inactive; negative | mutagenic call (Test System: Ames Salmonella typhimurium, Strain/Indicator: TA102, Metabolic Activation: None, Method: Preincubation): inactive; negative | mutagenic call (Test System: Ames Salmonella typhimurium, Strain/Indicator: TA102, Metabolic Activation: None, Method: Standard plate): inactive; negative | mutagenic call (Test System: Ames Salmonella typhimurium, Strain/Indicator: TA102, Metabolic Activation: Rat, Liver, S9, Aroclor 1254, Method: Preincubation): inactive; negative | mutagenic call (Test System: Ames Salmonella typhimurium, Strain/Indicator: TA102, Metabolic Activation: Rat, Liver, S-9, Aroclor 1254 (10%), Method: Preincubation): inactive; negative | mutagenic call (Test System: Ames Salmonella typhimurium, Strain/Indicator: TA102, Metabolic Activation: Rat, Liver, S-9, Aroclor 1254 (10%), Method: Standard plate): inactive; negative | mutagenic call (Test System: Ames Salmonella typhimurium, Strain/Indicator: TA104, Metabolic Activation: None, Method: Preincubation): inactive; negative | mutagenic call (Test System: Ames Salmonella typhimurium, Strain/Indicator: TA104, Metabolic Activation: Rat, Liver, S9, Aroclor 1254, Method: Preincubation): inactive; negative | mutagenic call (Test System: Ames Salmonella typhimurium, Strain/Indicator: TA1535, Metabolic Activation: None, Method: Preincubation): inactive; negative | mutagenic call (Test System: Ames Salmonella typhimurium, Strain/Indicator: TA1535, Metabolic Activation: None, Method: Standard plate): inactive; negative | mutagenic call (Test System: Ames Salmonella typhimurium, Strain/Indicator: TA1535, Metabolic Activation: Rat, Liver, S-9, Aroclor 1254 (10%), Method: Preincubation): inactive; negative | mutagenic call (Test System: Ames Salmonella typhimurium, Strain/Indicator: TA1535, Metabolic Activation: Rat, Liver, S-9, Aroclor 1254 (10%), Method: Standard plate): inactive; negative | mutagenic call (Test System: Ames Salmonella typhimurium, Strain/Indicator: TA1537, Metabolic Activation: None, Method: Preincubation): inactive; negative | mutagenic call (Test System: Ames Salmonella typhimurium, Strain/Indicator: TA 1537, Metabolic Activation: None, Method: Standard plate): inactive; negative | mutagenic call (Test System: Ames Salmonella typhimurium, Strain/Indicator: TA1537, Metabolic Activation: Rat, Liver, S-9, Aroclor 1254 (10%), Method: Preincubation): inactive; negative | mutagenic call (Test System: Ames Salmonella typhimurium, Strain/Indicator: TA1537, Metabolic Activation: Rat, Liver, S-9, Aroclor 1254 (10%), Method: Standard plate): inactive; negative | mutagenic call (Test System: CHINESE HAMSTER OVARY, Strain/Indicator: CHO-K1-BH4 (HGPRT)/6-THIOGUANINE, Metabolic Activation: NONE): inactive; negative | mutagenic call (Test System: CHINESE HAMSTER OVARY, Strain/Indicator: CHO-K1-BH4 (HGPRT)/6-THIOGUANINE, Metabolic Activation: S-9): inactive; negative | mutagenic call (Test System: E. COLI, Strain/Indicator: WP2 (PKM101), Metabolic Activation: NONE, Method: STANDARD PLATE): inactive; negative | mutagenic call (Test System: E. COLI, Strain/Indicator: WP2 UVRA (PKM101), Metabolic Activation: NONE, Method: STANDARD PLATE): inactive; negative | mutagenic call (Test System: E.COLI, Strain/Indicator: WP2UVRA, Metabolic Activation: RAT LIVER S-9, PHENOBARBITAL AND BETA-NAPHTHOFLAVONE, Method: PREINCUBATION): inactive; negative | mutagenic call (Test System: MOUSE LYMPHOMA, Strain/Indicator: L5178Y (TK+/TK-), Metabolic Activation: NONE, Method: SUSPENSION/PLATE): active; positive | mutagenic call (Test System: MOUSE LYMPHOMA, Strain/Indicator: L5178Y (TK+/TK-), Metabolic Activation: RAT, LIVER, S-9, AROCLOR 1254, Method: SUSPENSION/PLATE): active; positive | mutagenic call (Test System: Mouse lymphoma, Strain/Indicator: L5178Y (TK+/TK-), Metabolic Activation: None, Method: Suspension/plate): inactive; negative | mutagenic call (Test System: Mouse lymphoma, Strain/Indicator: L5178Y (TK+/TK-), Metabolic Activation: Rat, Liver, S-9, Aroclor 1254, Method: Suspension/plate): inactive; negative
